Reference: PubChem BioAssay AID651969 (The Scripps Research Institute Molecular Screening Center, 2013)
Active and inactive are the calls of the source. The rule behind the calls is not given here.

System: StAR promoter luciferase reporter cells, luminescence counterscreen
Assay: nonselective StAR promoter luciferase inhibitors – cell-based, luminescence, luciferase reporter, counter-screen for LRH-1 inverse agonist project, dose response (AID 651969)

`COc1ccc(NC(=O)COC(=O)c2cc(S(=O)(=O)N3CCCC3)ccc2O)cc1` was tested, and the IC50 was > 35.9 µM (inactive).
